Laboratory results reported in patent publication US20240067932A1, “METHODS AND COMPOSITIONS FOR GENERATING HEMOGENIC ENDOTHELIAL CELLS FROM PLURIPOTENT STEM CELLS” (Trailhead Biosystems Inc., priority 2022, published 2024).

Tests used:
Type in all cases: cell-based, human
[1] = tested on: early mesoderm progenitors; experiment: 8-factor HD-DoE experiments optimized for maximum GATA2 expression (qPCR, partial least squares models)
[2] = tested on: early mesoderm progenitors; experiment: as above; conditions: first model, FIG. 2; factors Forskolin, VEGF, FGF2, Albumax, SUN1162, Hydrocortisone, SB341542, Resveratrol; 3 days after stage 1
Excerpt: The early mesoderm progenitors were used for further differentiation along the endothelial lineage using a High-Dimensional Design of Experiments (HD-DoE) approach to simultaneously test multiple process inputs (e.g., small molecule agonists or antagonists) on output responses, such as gene expression. Based on predicted conditions that maximize expression of hemogenic endothelial enriched genes such as CD31, CD34, CD143, CD309, GATA2, Fill and RUNX1, vWF, a complex recipe was developed for generating differentiated hemogenic endothelial cells from the early mesoderm progenitors, composed of 8 agents as shown below in Table 1:
First, undifferentiated iPSC were grown for 48 h in CDM2 media containing 6 uM CHIR99021 (referred to herein as stage 1). Then stage 2 media was engineered. The basis of this was an 8-factor HD-DoE experiment with focus on differentiation of cells toward the hemogenic endothelial lineage for an additional 3 days after termination of stage 1 treatment. To test the effectors, 48 different combinations of effectors generated using Design-of-Experiments compression through D-optimality were robotically prepared. The effector combinations were prepared in a basal media and were subsequently added to the cells, which were then allowed to differentiate. Three days later, RNA extraction was performed, and gene expression was obtained using quantitative PCR analysis. The data were normalized and modeled using partial least squares regression analysis to the effector design, resulting in the generation of gene-specific models, which after model tuning for maximal Q2 predictive power, provided explanation of the effectors ability to control the expression of individual genes, combinatorically, and individually. Solutions within the tested space could then be explored to address desirability. For stage 2, conditions were created inducing the expression of GATA2, a transcription factor identified as a master regulator of hematopoiesis. GATA2 promotes the generation of HECs and facilitates endothelial-to-hematopoietic transition (EHT). GATA2 also suppresses cardiac differentiation at the mesoderm stage, directing cells to a hematopoietic fate. Optimizing for maximal expression of GATA2 led to a robust solution. […] In this model, high levels of KDR, important receptor for VEGF signaling, were observed. […] This model was derived from initial testing of eight factors including: Forskolin, VEGF, FGF2, Albumax, SUN1162, Hydrocortisone, SB341542, and Resveratrol. […] Factors with low contribution were excluded.

[3] = tested on: early mesoderm progenitors; experiment: Factor criticality / dynamic profile analysis of gene expression on removal of a finalized effector; set-up: expression level of GATA2 / expression level of TAL1 / expression level of CD44 / expression level of KDR / expression level of CD34 / expression level of CD31: unit not given here
[4] = second model, FIG. 3, factors CHIR, VEGF, FGF2, TTNBP, AGN194310, Y27632, Thymosin-β4, heparin
[5] = model FIG. 7, named factor removed, others kept
[6] = model FIG. 9, named factor removed
[7] = model FIG. 11, named factor removed
[8] = model FIG. 9A, before addition of SANT1
[9] = model FIG. 9A, with addition of SANT1

## CCc1ccc(C2=CC(C)(C)Sc3ccc(C#Cc4ccc(C(=O)O)cc4)cc32)cc1 [AGN194310]
[1]; [4]
  factor contribution (maximum expression of GATA2): relatively low factor contribution

## Cc1c[nH]c(-c2cnc(NCCNc3ccc(C#N)cn3)nc2-c2ccc(Cl)cc2Cl)n1 [CHIR]
[1]; [4]
  factor contribution (maximum expression of GATA2): relatively low factor contribution

## C=C[C@@]1(C)CC(=O)[C@]2(O)[C@@]3(C)[C@@H](O)CCC(C)(C)[C@@H]3[C@H](O)[C@H](OC(C)=O)[C@@]2(C)O1 [Forskolin, reference compound]
[2]
  factor contribution (maximum expression of GATA2): 27
[3]; model FIG. 7 (VEGF, Forskolin, FGF2), factor present
  expression level of GATA2: 583
[3]; model FIG. 7, factor present
  expression level of CD34: 2350
  expression level of CD44: 578
  expression level of FLI1 (Fill [sic]): 3971
  expression level of KDR: 33751
  expression level of TAL1: 370
[3]; [5]
  expression level of CD34: 2240
  expression level of CD44: 540
  expression level of FLI1 (Fill [sic]): 3740
  expression level of GATA2: 373
  expression level of KDR: 32839
  expression level of TAL1: 318

## O=C1O[C@H]([C@@H](O)CO)C(O)=C1O [L-ascorbic acid, reference compound]
[3]; model FIG. 10
  effect on expression of hemogenic endothelial genes analyzed (in words): increased expression of crucial genes
[1]; fourth model, FIG. 5, factors VEGF, FGF2, Sphingosine 1 phosphate, V11298, Pyrintegrin, Erythropoietin, L-ascorbic acid, XAV939
  factor contribution (maximum expression of GATA2): 5

## c1ccc2c(Oc3nc(Nc4ccc(N5CCOCC5)cc4)c4ncn(C5CCCCC5)c4n3)cccc2c1 [Purmorphamine, reference compound]
[3]; model FIG. 9 (Purmorphamine, VEGF, B-27 kept), factor present
  expression level of GATA2: 275
[3]; model FIG. 9, factor present
  expression level of CD34: 3230
  expression level of FLI1 (Fill [sic]): 3571
  expression level of KDR: 13612
  expression level of TAL1: 1008
[3]; [6]
  expression level of CD34: 2369
  expression level of FLI1 (Fill [sic]): 2324
  expression level of GATA2: 105
  expression level of KDR: 7614
  expression level of TAL1: 428
[1]; third model, FIG. 4, factors YHHU, DBZ, Purmorphamine, SANT1, LPA, Yodal, VEGF, B-27
  factor contribution (maximum expression of GATA2): 20

## CC1=C(/C=C/C(C)=C/C=C/C(C)=C/C(=O)O)C(C)(C)CCC1 [Retinoic Acid, Retinoic acid, reference compound]
[3]; model FIG. 11 (Retinoic Acid, BMP4, VEGF), factor present
  expression level of GATA2: 519
[3]; model FIG. 11, factor present
  expression level of CD31: 768
  expression level of CD34: 3971
  expression level of FLI1 (Fill [sic]): 3250
  expression level of TAL1: 490
[3]; [7]
  expression level of CD31: 486
  expression level of CD34: 2902
  expression level of FLI1 (Fill [sic]): 2936
  expression level of GATA2: 281
  expression level of TAL1: 235
[1]; fifth model, FIG. 6, factors VPA, SCF, BMP4, EFG, FLT3L, Arginine, Retinoic Acid, VEGF
  factor contribution (maximum expression of GATA2): 22

## Cc1nn(-c2ccccc2)c(C)c1/C=N/N1CCN(Cc2ccccc2)CC1 [SANT1, reference compound]
[3]; model FIG. 9
  effect on expression of genes of interest (in words): decreased levels of all genes of interest
[3]; [8]
  expression level of CD34: 3159
  expression level of KDR: 13469
  expression level of TAL1: 1010
[3]; [9]
  expression level of CD34: 1995
  expression level of KDR: 12504
  expression level of TAL1: 498
